Molecules are shown by their SMILES.

The source of these data is publication PMC11472058, “Trinucleotide cap analogs with triphosphate chain modifications: synthesis, properties, and evaluation as mRNA capping reagents” (Nucleic Acids Research, 2024).

One experiment has as its target T1, Human Dcp2 (Homo sapiens, UniProt Q8IU60).
T1 construct: made in house; host or cells: E. coli
The experiment can be described thus: RNA decapping assay with recombinant hDcp2. Format: biochemical. Particulars: fraction of decapped RNA after 30 min of incubation with hDcp2, 27-nt RNA capped with the analog, 37 °C; triplicates ± SD. The protocol: Human Dcp2 was expressed in E. coli and purified as described previously ([52]). Short 27 nt-capped RNAs (24.2 ng) were diluted with decapping buffer (50 mM Tris–HCl pH 8.0, 50 mM NH4Cl, 0.01% NP-40, 1 mM DTT, 5 mM MgCl2 and 2 mM MnCl2; 2.9 μl of freshly prepared 10 × Buffer) and the final volume was adjusted to 29 μl with ultrapure RNase free water. 4.2 ng (5 μl) of the solution was taken out as time zero reference and diluted with 5 μl loading dye (5 M urea, 44% formamide, 20 mM EDTA, 0.03% bromophenol blue, 0.03% xylene cyanol). The remaining RNAs (20 ng/24 μl) were subjected to 10 nM hDcp2 (250 nM, 1 μl) and the mixtures were incubated at 37°C for 1 h. At defined time points (5, 15, 30 and 60 min), 4 ng of RNA (5 μl) were taken out and the reactions were quenched by adding an equal volume of loading dye. RNAs were resolved electrophoretically on denaturing 15% acrylamide:bisacrylamide 19:1/7 M urea/1 × TBE gel, stained with SYBR Gold (Invitrogen) and visualized using a Typhoon FLA 9500 (GE Healthcare). The decapping progress was determined for each time point by densitometry analysis of the gels, as a ratio between the intensity of the band corresponding to capped RNA and the sum of the intensity of bands from capped and uncapped RNAs. The percentages of remaining capped RNA were then plotted as a function of time.
The RNAs used to determine the capping efficiencies were also useful to study the susceptibility of capped RNA to decapping by hDcp2, the catalytic subunit of the major human mRNA decapping complex Dcp1/Dcp2, which releases m^7GDP and 5′-monophosphorylated RNA (in this case the 26-nt pApG-RNA24; Figure 4C). The progress of decapping at different time points (5, 15, 30 and 60 min) was monitored by HR-PAGE followed by densitometric analysis of the gels (Figure 4C, triplicates of gels are shown in Supplementary Figure S2), and the fraction of remaining capped RNA (27-nt) was plotted as a function of time (Figure 4D-G). […] For better visualization, the data of modified capped RNAs were grouped according to the type of modification present at the 5′ end and presented in separate graphs (Figure 4E–G). To quantify the relative susceptibility to hDcp2, we compared the decapping levels at the 30 min time point (Table 1). For RNAs capped with β-S-triphosphate analogs (1–6, Figure 4E, Table 1), we observed a significant difference in susceptibility to hDcp2 between RP and SP isomers, independent of the methylation pattern.

The subject of the next experiment is BALB/c mice. Description: In vivo translation efficacy of FLuc-encoding mRNA-LNPs (whole body bioluminescence). Conditions: 10 μg mRNA i.v., 4, 8 and 24 h. The protocol:
Two reporters were selected to determine in vivo protein production: firefly luciferase (FLuc) and human erythropoietin (hEPO). The mRNA encoding each gene was obtained by IVT using T7 RNA polymerase for co-transcriptional capping with m^7Gppp^5′SAmpG and m^7GpppAmpG as the reference cap structure. 500 μl or 1000 μl of the IVT mix (for obtaining mRNA encoding hEPO or FLuc, respectively) contained following components at indicated final concentration: transcription buffer with 2 mM spermidine and Bis-Tris pH 6.5, 1 U/μl RNase inhibitor (RiboLock, ThermoFisher Scientific), 5 mM ATP, CTP and UTP, 4 mM GTP, 10 mM DTT, 25 mM MgCl2, 0.002 U/μl inorganic pyrophosphatase (ThermoFisher Scientific), 10 mM m^7GpppAmpG or m^7Gppp^5’SAmpG, 40 ng/μl linearized plasmid as the DNA template and 0.125 μg/μl T7 RNA polymerase (in-house prepared). All components were gently mixed by pipetting and incubated for one hour at 37°C. After DNA template removal, obtained mRNA was initially purified using oligo(dT)25 resin, as previously described, and concentrated by ultrafiltration (Amicon Ultra-15 50K or 100K, Millipore) prior loading on preparative column. […] Eluate quality was analyzed on 1 × TBE 1.2% agarose gel, and the fractions containing mRNA of the highest purity were combined, desalted by ultrafiltration (Amicon Ultra-15 50K or 100K, Millipore), and precipitated. […]

For `CO[C@@H]1[C@H](OP(=O)(O)OC[C@H]2O[C@@H](n3cnc4c(=O)[nH]c(N)nc43)[C@H](O)[C@@H]2O)[C@@H](CSP(=O)([O-])OP(=O)(O)OP(=O)(O)OC[C@H]2O[C@@H](n3c[n+](C)c4c(O)nc(N)nc43)[C@H](O)[C@@H]2O)O[C@H]1n1cnc2c(N)ncnc21` [Compound 8, m^7Gppp^5’SAmpG], the “Susceptibility to hDcp2 (@30 min)” value on Human Dcp2 is on record as 0.64 ± 0.11. Also, the “FLuc protein expression (whole body bioluminescence) versus m^7GpppAmpG-capped mRNA (in words)” value with BALB/c mice (GeneVoy LNP) is listed as “the effect was the opposite”; in the experiment on BALB/c mice (SM-102 LNP) it was “no significant differences”.
